Results: PMC8892251, “An Enhanced Hybrid Screening Approach to Identify Potent Inhibitors for the SARS-CoV-2 Main Protease From the NCI Compound Library” (Frontiers in Chemistry, 2022)
“And” between values parts separate entries of the source, which are not always exact repeats. Identical values can stand only once. Like-named read-outs stand apart in the source and are kept apart here.

What was measured:
[1] = molecular target: SARS-CoV-2 Mpro (Severe acute respiratory syndrome coronavirus 2, UniProt P0DTD1); experiment: biochemical
[2] = molecular target: PLpro (Severe acute respiratory syndrome coronavirus 2, UniProt P0DTD1); experiment: IC50 test against PLpro (selectivity check for quinones); type: biochemical, SARS-CoV-2; conditions: Supplementary Figure S4; for specificity of Mpro inhibition: conclusion from PLpro counter-test; for selectivity Mpro versus PLpro: quinones tested on PLpro

Row | SMILES | IC50 ([1]; IC50) | specificity of Mpro inhibition [2] | selectivity Mpro versus PLpro [2] | IC50 ([1]; Mpro, Figure 5, triplicate experiments, read-out: IC50) | IC50 ([1]; Mpro, read-out: IC50)
1 | CC1=C(N=[N+]=[N-])C(=O)C(C)=C(N=[N+]=[N-])C1=O [Compound 88] | 723 nM | specifically inhibit the activity of Mpro | more selective on Mpro than PLpro | – | –
2 | O=C1C=CC(=O)c2c1ncc1c2nc2sccn21 [Compound 110] | – | specifically inhibit the activity of Mpro | more selective on Mpro than PLpro | 705 nM | 705 nM
3 | O=C1C=C/C(=N\c2nc3c4ccccc4c4ccccc4c3[nH]2)c2ccccc21 [Compound 112] | 1690 nM and 1700 nM | – | more selective on Mpro than PLpro | – | –
